Patent US20130085260A1, “METHOD FOR THE IDENTIFICATION OF T CELL EPITOPES” (CENTRE H[…] L'UNIVERSITE DE MONTREAL, priority 2010, published 2013)

Tests used:
Assay type in all cases: cell-based, human
NP-CD8 T cell clone = details: EBV-B cells pulsed with synthetic peptide, 1 to 10 μg/mL for 10-mer, 50 μg/mL for longer peptides, 3 hours
M1-CD4 T cell clone = experiment: IFN-γ secretion (ELISA) by M1-CD4 T cell clone co-cultured with peptide-pulsed EBV-B cells; details: EBV-B cells pulsed with synthetic peptide; HLA-DR-restricted
Protocol: Antigen-specific bulk T cells from peripheral blood mononuclear cells stimulated with autologous CD4O-B cells electroporated with M1 or NP DNA plasmids were cloned by limiting dilution and cultured as previously described.^8
Synthetic peptides were added to EBV-B cells at a final concentration of 1 to 10 μg/mL for MHC class 110-mer peptides (50 μg/mL for longer peptides) (Table 2) for 3 hours at 37° C. 5% CO2, and then washed once to remove unbound peptides. T-cell clones were washed and cultured for 4 hours in Iscove's complete medium supplemented with 120 IU/ml of interleukin-2 (IL-2). T cell clones' reactivity to MHC-restricted epitopes was tested on the basis of interferon-γ cytokine secretion as described previously.^7

[1] = system: M1^58-66-specific T cells (M1-CD8); details: EBV-B cells pulsed with peptide; negative specificity control

Sequence | recognition by NP-CD8 T cell clone (IFN-γ production) (NP-CD8 T cell clone) | recognition by M1-CD4 T cell clone (IFN-γ production) (M1-CD4 T cell clone) | further results
LSAFDERRNKYLEEHPSAG [Peptide 1-6] | well recognized |  | 
NGNGDPNNMDKAVKL [Peptide b] |  | weakly recognized | 
AFDERRNKYL [Peptide 2] | more weakly but nevertheless specifically recognized |  | 
YRKLKREITF |  | specifically recognized | 
IMDQVPFSV [gp100^209-218 peptide] |  |  | recognition by M1^58-66-specific T cells (IFN-γ production) [1]: did not recognize
